Experimental data from patent publication US20260200939A1, “MOLECULAR GLUE DEGRADER COMPOUNDS AND USES THEREOF” (Novartis AG, priority 2022, published 2026).
pIC50: −log10 of the molar value.

The molecules below were run against T1, Recombinant RNF126 (Homo sapiens, UniProt Q9BV68) (assay: RNF126 Binding Assay, gel-based ABPP). Conditions: not given.
T1 construct: FLAG (C); host or cells: HEK293T
Method: RNF126 mammalian expression plasmid with a C-terminal FLAG tag was purchased from Origene (Origene Technologies Inc., RC204986). The plasmid was transformed into NEB 5-alpha Competent E. coli (DH5) cells (NEB product no. C2987H). The following day, a single transformed colony was used to inoculate 50 ml of nutrient rich LB medium containing kanamycin (50 μg/ml) and was incubated at 37° C. overnight, with agitation (250 rpm). A Miniprep (Qiagen) kit was used to isolate the plasmid before sequence verification with appropriate primers.
HEK293T cells were grown to 30-50% confluency in DMEM supplemented with 10% FBS (Corning) and maintained at 37° C. with 5% CO2. Immediately before transfection, media was replaced with DMEM containing 5% FBS. Each plate was transfected with 24 μg of overexpression plasmid with 24 μL Lipofectamine 3000 (Invitrogen) in Opti-MEM. After 48 h cells were collected in PBS, lysed by sonication, and batch bound with anti-DYKDDDDK resin (GenScript, L00432) for 2 hours. Lysate and resin were washed with PBS and eluted with 133.33 μg/ml 3×FLAG peptide (ApexBio, A6001) in PBS. Five elutions were performed for 15 minutes each. Elutions were concentrated and the protein was stored in PBS. Concentration and purity was determined using the BCA assay and western blotting.
Recombinant RNF126 ([…]) was pre-treated with either DMSO vehicle or covalent ligand at 37° C. for 30 min in 25 μL of PBS, and subsequently treated with of IA-Rhodamine (concentrations designated in figure legends) (Setareh Biotech) at room temperature for 1 h in the dark. The reaction was stopped by addition of 4×reducing Laemmli SDS sample loading buffer (Alfa Aesar). After boiling at 95° C. for 5 min, the samples were separated on precast 4-20% Criterion TGX gels (Bio-Rad). Probe-labeled proteins were analyzed by in-gel fluorescence using a ChemiDoc MP (Bio-Rad).

T1 sequence (Q9BV68 whole entry): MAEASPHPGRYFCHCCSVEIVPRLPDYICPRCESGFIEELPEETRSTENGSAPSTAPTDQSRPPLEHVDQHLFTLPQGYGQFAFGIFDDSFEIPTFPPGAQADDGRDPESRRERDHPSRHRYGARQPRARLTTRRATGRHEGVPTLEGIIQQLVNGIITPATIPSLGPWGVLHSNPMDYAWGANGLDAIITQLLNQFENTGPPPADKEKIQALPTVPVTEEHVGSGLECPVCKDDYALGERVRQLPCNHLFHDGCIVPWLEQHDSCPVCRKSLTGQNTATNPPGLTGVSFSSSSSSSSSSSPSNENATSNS

| pIC50 | SMILES |
| --- | --- |
| > 7.00 | COc1ccc(C(=O)/C=C/C(=O)N2CCN(C(=O)OC(C)(C)C)CC2)cc1F [Compound 414, tert-butyl (E)-4-(4-(3-fluoro-4-methoxyphenyl)-4-oxobut-2-enoyl)piperazine-1-carboxylate] |
| > 7.00 | CC(C)(C)OC(=O)N1CCN(C(=O)/C=C/C(=O)c2ccccc2C#N)CC1 [Compound 415, tert-butyl (E)-4-(4-(2-cyanophenyl)-4-oxobut-2-enoyl)piperazine-1-carboxylate] |
| > 7.00 | CC(C)(C)OC(=O)N1CCN(C(=O)/C=C/C(=O)c2ccc(C#N)cc2)CC1 [Compound 416, tert-butyl (E)-4-(4-(4-cyanophenyl)-4-oxobut-2-enoyl)piperazine-1-carboxylate] |

Same assay, conditions: range with lower bound in nM and upper bound in μM

| IC50 [nM] | SMILES |
| --- | --- |
| 100 to 1000 | COc1ccc(C(=O)/C=C/C(=O)N2CCN(C(=O)OC(C)(C)C)CC2)c(F)c1 [Compound 412, tert-butyl (E)-4-(4-(2-fluoro-4-methoxyphenyl)-4-oxobut-2-enoyl)piperazine-1-carboxylate] |
| 100 to 1000 | COc1cc(F)ccc1C(=O)/C=C/C(=O)N1CCN(C(=O)OC(C)(C)C)CC1 [Compound 413, tert-butyl (E)-4-(4-(4-fluoro-2-methoxyphenyl)-4-oxobut-2-enoyl)piperazine-1-carboxylate] |
| 100 to 1000 | CC(C)(C)OC(=O)N1CCN(C(=O)/C=C/C(=O)c2cccc(C#N)c2)CC1 [Compound 417, tert-butyl (E)-4-(4-(3-cyanophenyl)-4-oxobut-2-enoyl)piperazine-1-carboxylate] |
| 100 to 1000 | COc1ccc(C(=O)/C=C/C(=O)N2CCN(C(=O)OC(C)(C)C)CC2)c(Cl)c1 [Compound 418, tert-butyl (E)-4-(4-(2-chloro-4-methoxyphenyl)-4-oxobut-2-enoyl)piperazine-1-carboxylate] |
| 100 to 1000 | C#CCOc1ccc(C(=O)/C=C/C(=O)N2CCN(C(=O)OC(C)(C)C)CC2)cc1 [Compound 419, tert-butyl (E)-4-(4-oxo-4-(4-(prop-2-yn-1-yloxy)phenyl)but-2-enoyl)piperazine-1-carboxylate] |

Each molecule was assayed against T2, CDK4 (Homo sapiens, UniProt P11802) (assay: CDK4 Degradation Assay, Western blotting). Conditions: not given.
T2 construct: endogenous in cells; host or cells: C33A
Assay type: cell-based
Method: C33A cells were purchased from American Type Culture Collection (ATCC) and were cultured in Dulbecco's Modified Eagle Medium (DMEM) containing 10% (v/v) fetal bovine serum (FBS) and maintained at 37° C. with 5% CO2. 22RV1 cells were purchased from the ATCC and were cultured in RPMI-1640 Medium containing 10% (v/v) FBS and maintained at 37° C. with 5% CO2. HEK293T cells were obtained from the UC Berkeley Cell Culture Facility and were cultured in DMEM containing 10% (v/v) FBS and maintained at 37° C. with 5% CO2. K562 cells were obtained from the UC Berkeley Cell Culture Facility and were cultured in Iscove's Modified Dulbecco's Medium (IMDM) containing 10% (v/v) FBS and maintained at 37° C. with 5% CO2. MV-4-11 cells were obtained from the ATCC and were cultured in IMDM containing 10% (v/v) FBS and maintained at 37° C. with 5% CO2. A549 cells were obtained from the ATCC and were cultured in F-12K Medium containing 10% (v/v) FBS and maintained at 37° C. with 5% CO2. Mino cells were obtained from the ATCC and were cultured in RPMI-1640 Medium containing 10% (v/v) FBS and maintained at 37° C. with 5% CO2. LNCaP cells were obtained from the ATCC and were cultured in RPMI-1640 Medium containing 10% (v/v) FBS and maintained at 37° C. with 5% CO2. Unless otherwise specified, all cell culture materials were purchased from Gibco. It is not known whether HEK293T cells are from male or female origin.
Cells were washed twice with cold PBS, scraped, and pelleted by centrifugation (700 g, 5 min, 4° C.). Pellets were resuspended in PBS, sonicated, clarified by centrifugation (12,000 g, 10 min, 4° C.), and lysate was transferred to new low-adhesion microcentrifuge tubes. Proteome concentrations were determined using BCA assay and lysate was diluted to appropriate working concentrations.
Proteins were resolved by SDS/PAGE and transferred to nitrocellulose membranes using the Trans-Blot Turbo transfer system (Bio-Rad). Membranes were blocked with 5% BSA in Tris-buffered saline containing Tween 20 (TBS-T) solution for 30 min at RT, washed in TBS-T, and probed with primary antibody diluted in recommended diluent per manufacturer overnight at 4° C. After 3 washes with TBS-T, the membranes were incubated in the dark with IR680- or IR800-conjugated secondary antibodies at 1:10,000 dilution in 5% BSA in TBS-T at RT for 1 h. After 3 additional washes with TBST, blots were visualized using an Odyssey Li-Cor fluorescent scanner. The membranes were stripped using ReBlot Plus Strong Antibody Stripping Solution (EMD Millipore) when additional primary antibody incubations were performed. Antibodies used in this study were CDK4 (Abcam ab108357), Vinculin (Abcam ab129002), GAPDH (Cell Signaling Technology 14C10), RNF126 (Santa Cruz Biotechnology sc-376005), BRD4 (Abcam ab128874), Beta Actin (Cell Signaling Technology 13E5), PDE5 (Abcam ab259945), AR-V7 (Abcam ab273500), c-Abl (Santa Cruz Biotechnology sc-23), SMARCA2 (Abcam ab240648), LRRK2 (Abcam ab133474), BTK (Cell Signaling Technology D3H5), Androgen Receptor (Abcam ab133273).

| DC50 [nM] | SMILES |
| --- | --- |
| > 10000 | COc1ccc(C(=O)/C(C)=C/C(=O)N2CCN(c3ccc(Nc4ncc5cc(C(=O)N(C)C)n(C6CCCC6)c5n4)nc3)CC2)cc1 [Compound 146, (E)-7-cyclopentyl-2-((5-(4-(4-(4-methoxyphenyl)-3-methyl-4-oxobut-2-enoyl)piperazin-1-yl)pyridin-2-yl)amino)-N,N-dimethyl-7H-pyrrolo[2,3-d]pyrimidine-6-carboxamide] |
| > 10000 | COc1ccccc1C(=O)/C=C/C(=O)N1CCN(c2ccc(Nc3ncc4cc(C(=O)N(C)C)n(C5CCCC5)c4n3)nc2)CC1 [Compound 148, (E)-7-cyclopentyl-2-((5-(4-(4-(2-methoxyphenyl)-4-oxobut-2-enoyl)piperazin-1-yl)pyridin-2-yl)amino)-N,N-dimethyl-7H-pyrrolo[2,3-d]pyrimidine-6-carboxamide] |
| > 10000 | CN(C)C(=O)c1cc2cnc(Nc3ccc(N4CCN(C(=O)/C=C/C(=O)c5ccc(F)cc5)CC4)cn3)nc2n1C1CCCC1 [Compound 151, (E)-7-cyclopentyl-2-((5-(4-(4-(4-fluorophenyl)-4-oxobut-2-enoyl)piperazin-1-yl)pyridin-2-yl)amino)-N,N-dimethyl-7H-pyrrolo[2,3-d]pyrimidine-6-carboxamide] |
| > 10000 | CN(C)C(=O)c1cc2cnc(Nc3ccc(N4CCN(C(=O)/C=C/C(=O)c5ccccc5Cl)CC4)cn3)nc2n1C1CCCC1 [Compound 158, (E)-2-((5-(4-(4-(2-chlorophenyl)-4-oxobut-2-enoyl)piperazin-1-yl)pyridin-2-yl)amino)-7-cyclopentyl-N,N-dimethyl-7H-pyrrolo[2,3-d]pyrimidine-6-carboxamide] |
| > 10000 | CN(C)C(=O)c1cc2cnc(Nc3ccc(N4CCN(C(=O)/C=C/C(=O)c5ccccc5Br)CC4)cn3)nc2n1C1CCCC1 [Compound 159, (E)-2-((5-(4-(4-(2-bromophenyl)-4-oxobut-2-enoyl)piperazin-1-yl)pyridin-2-yl)amino)-7-cyclopentyl-N,N-dimethyl-7H-pyrrolo[2,3-d]pyrimidine-6-carboxamide] |
| > 10000 | COc1ccc(C(=O)/C=C(\C)C(=O)N2CCN(c3ccc(Nc4ncc5cc(C(=O)N(C)C)n(C6CCCC6)c5n4)nc3)CC2)cc1 [Compound 160, (E)-7-cyclopentyl-2-((5-(4-(4-(4-methoxyphenyl)-2-methyl-4-oxobut-2-enoyl)piperazin-1-yl)pyridin-2-yl)amino)-N,N-dimethyl-7H-pyrrolo[2,3-d]pyrimidine-6-carboxamide] |
| > 10000 | CN(C)C(=O)c1cc2cnc(Nc3ccc(N4CCN(C(=O)/C=C/C(=O)c5cccc(C(F)(F)F)c5)CC4)cn3)nc2n1C1CCCC1 [Compound 165, (E)-7-cyclopentyl-N,N-dimethyl-2-((5-(4-(4-oxo-4-(3-(trifluoromethyl)phenyl)but-2-enoyl)piperazin-1-yl)pyridin-2-yl)amino)-7H-pyrrolo[2,3-d]pyrimidine-6-carboxamide] |
| > 10000 | CN(C)C(=O)c1cc2cnc(Nc3ccc(N4CCN(C(=O)/C=C/C(=O)c5ccc6c(c5)OCCO6)CC4)cn3)nc2n1C1CCCC1 [Compound 255, (E)-7-cyclopentyl-2-((5-(4-(4-(2,3-dihydrobenzo[b][1,4]dioxin-6-yl)-4-oxobut-2-enoyl)piperazin-1-yl)pyridin-2-yl)amino)-N,N-dimethyl-7H-pyrrolo[2,3-d]pyrimidine-6-carboxamide] |
| > 10000 | COc1ccc(C(=O)/C=C(\C#N)C(=O)N2CCN(c3ccc(Nc4ncc5cc(C(=O)N(C)C)n(C6CCCC6)c5n4)nc3)CC2)cc1 [Compound 256, (E)-2-((5-(4-(2-cyano-4-(4-methoxyphenyl)-4-oxobut-2-enoyl)piperazin-1-yl)pyridin-2-yl)amino)-7-cyclopentyl-N,N-dimethyl-7H-pyrrolo[2,3-d]pyrimidine-6-carboxamide] |
| > 10000 | CN(C)C(=O)c1cc2cnc(Nc3ccc(N4CCN(C(=O)/C=C/C(=O)c5ccc6c(c5)NC(=O)CO6)CC4)cn3)nc2n1C1CCCC1 [Compound 257, (E)-7-cyclopentyl-N,N-dimethyl-2-((5-(4-(4-oxo-4-(3-oxo-3,4-dihydro-2H-benzo[b][1,4]oxazin-6-yl)but-2-enoyl)piperazin-1-yl)pyridin-2-yl)amino)-7H-pyrrolo[2,3-d]pyrimidine-6-carboxamide] |
